# Assay results reported in the supplement of paper PMC10307832.
# Experiments:
# Test in all cases: relative viability (nuclei count vs DMSO), 5 days (fraction); higher = more cells survive
# [1] = compound: CC(O)(CS(=O)(=O)c1ccc(F)cc1)C(=O)Nc1ccc(C#N)c(C(F)(F)F)c1 [Bicalutamide] + Nc1nc2[nH]cc(CCc3ccc(C(=O)N[C@@H](CCC(=O)O)C(=O)O)cc3)c2c(=O)[nH]1 [Pemetrexed] (partner 0.2 µM)
# Outline: (§1)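 Relative viability equals treated-well nuclei counts divided by vehicle-well nuclei counts. Counts came from 4× images of lung cancer cell lines grown in 1536-well plates for 5 days after pin-tool dosing on the day after seeding. Dosing used one drug alone or a fixed anchor-drug dose plus five library-drug doses (not always all listed) in √10 steps, and values are medians of duplicate plates.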
# [2] = compound: CC(O)(CS(=O)(=O)c1ccc(F)cc1)C(=O)Nc1ccc(C#N)c(C(F)(F)F)c1 [Bicalutamide] + CC(=O)Nc1cccc(-n2c(=O)n(C3CC3)c(=O)c3c(Nc4ccc(I)cc4F)n(C)c(=O)c(C)c32)c1 [Trametinib] (partner 0.02 µM)
# Outline: as §1
# Bicalutamide + Foretinib = compound: CC(O)(CS(=O)(=O)c1ccc(F)cc1)C(=O)Nc1ccc(C#N)c(C(F)(F)F)c1 [Bicalutamide] + COc1cc2c(Oc3ccc(NC(=O)C4(C(=O)Nc5ccc(F)cc5)CC4)cc3F)ccnc2cc1OCCCN1CCOCC1 [Foretinib] (partner 0.25 µM)
# Outline: as §1
# [3] = compound: C(C(=O)C(=O)O)Br [Bromopyruvate] + Nc1nc2[nH]cc(CCc3ccc(C(=O)N[C@@H](CCC(=O)O)C(=O)O)cc3)c2c(=O)[nH]1 [Pemetrexed] (partner 0.2 µM)
# Outline: as §1
Cell Line,relative viability ([1]; first compound 0.08 µM),relative viability ([1]; first compound 0.253 µM),relative viability ([1]; first compound 0.8 µM),relative viability ([1]; first compound 2.53 µM),relative viability ([2]; first compound 0.08 µM),relative viability ([2]; first compound 0.253 µM),relative viability ([2]; first compound 0.8 µM),relative viability ([2]; first compound 2.53 µM),relative viability (Bicalutamide + Foretinib; first compound 0.08 µM),relative viability (Bicalutamide + Foretinib; first compound 0.253 µM),relative viability (Bicalutamide + Foretinib; first compound 0.8 µM),relative viability (Bicalutamide + Foretinib; first compound 2.53 µM),relative viability ([3]; first compound 1 µM),relative viability ([3]; first compound 3.162 µM),relative viability ([3]; first compound 10 µM),relative viability ([3]; first compound 31.62 µM),relative viability ([3]; first compound 100 µM)
COR-L 105,1.25,1.19,1.08,1.05,0.397,0.371,0.383,0.381,1.35,0.976,0.859,0.784,1.25,1.19,1.1,1,0.532
LK-2,0.233,0.273,0.379,0.303,0.652,0.672,1.15,0.742,1.44,0.992,1.63,1.32,0.346,0.23,0.312,0.237,0.261
201T,0.306,0.33,0.328,0.36,0.703,0.725,0.7,0.738,1.01,1.02,0.892,1.09,0.327,0.345,0.323,0.357,0.297
NCI-H647,0.187,0.172,0.172,0.151,0.482,0.429,0.721,0.414,1.08,1.16,1.23,1.14,0.17,0.162,0.156,0.184,0.177
H3255,0.584,0.536,0.62,0.571,0.666,0.567,0.717,0.569,0.901,0.827,–,0.84,0.558,0.535,0.573,0.536,0.597
NCI-H650,0.88,0.932,0.994,0.992,1.04,1.01,1.12,0.934,1.07,1.07,1.17,0.936,0.971,0.924,0.81,0.989,0.941
NCI-H2085,0.837,0.708,0.912,0.775,0.513,0.554,0.535,0.404,1.02,1.1,0.878,0.753,0.974,0.954,0.992,0.937,0.963
NCI-H2347,0.463,0.444,0.453,0.445,0.283,0.287,0.307,0.249,1.26,1.35,1.34,1.04,0.42,0.471,0.486,0.44,0.43
NCI-H1944,0.562,0.599,0.681,0.611,0.408,0.393,0.421,0.397,0.837,0.749,0.981,0.775,0.576,0.707,0.625,0.656,0.63
